# Experimental data from patent publication US20240158446A1, “CYCLIC COMPOUND HAVING SELECTIVE INHIBITORY ACTION ON KRAS OVER HRAS AND NRAS” (CHUGAI SEIYAKU KABUSHIKI KAISHA, priority 2021, published 2024).
# Tests used:
# [1] = test system: human lung cancer strain NCI-H441;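 further: cell proliferation inhibition after four days measured by CellTiter-Glo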
# [2] = molecular target: GDP-bound HRAS wild-type protein (Homo sapiens, UniProt P01112); experiment: Binding to HRAS by surface plasmon resonance (SPR), Single Cycle Kinetics; conditions: SPR; GDP-bound HRAS wild-type protein vs GDP-bound KRAS wild-type protein; KD ratio class
# Chain of GDP-bound HRAS wild-type protein (P01112 whole entry): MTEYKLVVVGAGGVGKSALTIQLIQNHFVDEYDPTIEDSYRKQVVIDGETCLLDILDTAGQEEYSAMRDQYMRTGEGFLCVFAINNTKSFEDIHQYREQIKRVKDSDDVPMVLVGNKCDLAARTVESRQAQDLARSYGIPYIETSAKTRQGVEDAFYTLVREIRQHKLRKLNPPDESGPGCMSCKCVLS
# [3] = molecular target: GDP-bound KRAS wild-type protein (Homo sapiens, UniProt P01116); experiment: Binding to KRAS by surface plasmon resonance (SPR), Single Cycle Kinetics; conditions: SPR, Single Cycle Kinetics, 1:1 binding model; GDP-bound KRAS wild-type protein; read-out: KRAS KD
# Chain of GDP-bound KRAS wild-type protein (P01116 whole entry): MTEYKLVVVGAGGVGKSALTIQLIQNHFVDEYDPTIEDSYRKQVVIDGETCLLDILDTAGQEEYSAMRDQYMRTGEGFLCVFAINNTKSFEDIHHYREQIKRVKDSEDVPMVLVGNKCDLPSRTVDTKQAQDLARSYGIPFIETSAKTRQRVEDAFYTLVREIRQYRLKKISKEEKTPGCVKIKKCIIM
# [4] = molecular target: GDP-bound NRAS wild-type protein (Homo sapiens, UniProt P01111); experiment: Binding to NRAS by surface plasmon resonance (SPR), Single Cycle Kinetics; conditions: SPR; GDP-bound NRAS wild-type protein vs GDP-bound KRAS wild-type protein; KD ratio class
# Chain of GDP-bound NRAS wild-type protein (P01111 whole entry): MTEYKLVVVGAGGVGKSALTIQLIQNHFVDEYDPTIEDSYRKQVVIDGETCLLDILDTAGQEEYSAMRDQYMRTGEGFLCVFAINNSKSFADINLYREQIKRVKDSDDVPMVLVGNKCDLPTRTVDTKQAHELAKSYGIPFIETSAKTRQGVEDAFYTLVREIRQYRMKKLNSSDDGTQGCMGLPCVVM
SMILES,IC50 [1] [nM],Kd [3] [nM],HRAS/KRAS (ratio of KD value for HRAS to KD value for KRAS) [2],NRAS/KRAS (ratio of KD value for NRAS to KD value for KRAS) [4]
CCO[C@@H]1C[C@H]2C(=O)NC3(CCC3)C(=O)N(C)[C@@H](C(CC)CC)C(=O)N(C)[C@H](C(=O)N(C)C)CC(=O)N(C)[C@@H](CC(C)C)C(=O)N[C@@H]([C@@H](C)CC)C(=O)N(C)CC(=O)N(C)[C@H]3C/C=C\CCN(C3=O)[C@@H](Cc3ccc(C(F)(F)F)cc3)C(=O)N(C)CC(=O)N[C@@H](CCc3cc(F)c(Cl)c(F)c3)C(=O)N2C1 [PP1232],59.7,0.67,A (a compound having 10 or more and less than 20 is denoted as A),A (a compound having 10 or more and less than 20 is denoted as A)
CCO[C@@H]1C[C@H]2C(=O)NC3(CCC3)C(=O)N(C)[C@@H](C(CC)CC)C(=O)N(C)[C@H](C(=O)N(C)C)CC(=O)N(C)[C@@H](CC3CC3)C(=O)N[C@@H]([C@@H](C)CC)C(=O)N(C)CC(=O)N(C)[C@H]3C/C=C\CCN(C3=O)[C@@H](Cc3ccc(C(F)(F)F)cc3)C(=O)N(C)CC(=O)N[C@@H](CCc3cc(F)c(Cl)c(F)c3)C(=O)N2C1 [PP1233],34.7,0.66,A (a compound having 10 or more and less than 20 is denoted as A),AA (a compound having 20 or more is denoted as AA)
CCO[C@@H]1C[C@H]2C(=O)NC3(CCC3)C(=O)N(C)[C@@H](C3CCCC3)C(=O)N(C)[C@@H](C(=O)N(C)C)CC(=O)N(C)[C@@H](CC)C(=O)N[C@@H]([C@@H](C)CC)C(=O)N(C)CC(=O)N(C)[C@H]3C/C=C\CCN(C3=O)[C@@H](Cc3ccc(C(F)(F)F)cc3)C(=O)N(C)CC(=O)N[C@@H](CCc3cc(F)c(C(F)(F)F)c(F)c3)C(=O)N2C1 [PP1234],398,3.8,C (A compound having a KD ratio of 0.1 or more and less than 3 is denoted as C),B (a compound having 3 or more and less than 10 is denoted as B)
"CCCCCC[C@H]1C(=O)N[C@@H]([C@@H](C)CC)C(=O)N(C)CC(=O)N(C)[C@H]2C/C=C\CCN(C2=O)[C@@H](Cc2ccc(C(F)(F)F)cc2)C(=O)N(C)CC(=O)N[C@@H](CCc2cc(F)c(C(F)(F)F)c(F)c2)C(=O)N2C[C@H](OCC)C[C@H]2C(=O)NC2(CCC2)C(=O)N(C)[C@@H](C2CCCC2)C(=O)N(C)[C@H](C(=O)N(C)C)CC(=O)N1C [PP1242, (2S,8S,12R,14S,20S,23S,27S,30S,36S,38Z)-20-cyclopentyl-8-[2-[3,5-difluoro-4-(trifluoromethyl)phenyl]ethyl]-12-ethoxy-27-hexyl-N,N,4,19,22,26,32,35-octamethyl-30-[(1S)-1-methylpropyl]-3,6,9,15,18,21,25,28,31,34,42-undecaoxo-2-[[4-(trifluoromethyl)phenyl]methyl]spiro[1,4,7,10,16,19,22,26,29,32,35-undecazatricyclo[34.5.1.0^10,14]dotetracont-38-ene-17,1′-cyclobutane]-23-carboxamide]",12.8,0.076,A (a compound having 10 or more and less than 20 is denoted as A),A (a compound having 10 or more and less than 20 is denoted as A)
"CCO[C@@H]1C[C@H]2C(=O)NC3(CCC3)C(=O)N(C)[C@@H](C3CCCC3)C(=O)N(C)[C@H](C(=O)N(C)C)CC(=O)N(C)[C@@H](CC3CC3)C(=O)N[C@@H]([C@@H](C)CC)C(=O)N(C)CC(=O)N(C)[C@H]3C/C=C\CCN(C3=O)[C@@H](Cc3ccc(C(F)(F)F)cc3)C(=O)N(C)CC(=O)N[C@@H](CCc3ccc(C(F)(F)F)c(OC)c3)C(=O)N2C1 [PP1247, (2S,8S,12R,14S,20S,23S,27S,30S,36S,38Z)-20-cyclopentyl-27-(cyclopropylmethyl)-12-ethoxy-8-[2-[3-methoxy-4-(trifluoromethyl)phenyl]ethyl]-N,N,4,19,22,26,32,35-octamethyl-30-[(1S)-1-methylpropyl]-3,6,9,15,18,21,25,28,31,34,42-undecaoxo-2-[[4-(trifluoromethyl)phenyl]methyl]spiro[1,4,7,10,16,19,22,26,29,32,35-undecazatricyclo[34.5.1.0^10,14]dotetracont-38-ene-17,1′-cyclobutane]-23-carboxamide]",6.4,0.046,A (a compound having 10 or more and less than 20 is denoted as A),A (a compound having 10 or more and less than 20 is denoted as A)

# Further lines, with some results ahead:
IC50 [1] [nM],Kd [3] [nM],SMILES,HRAS/KRAS (ratio of KD value for HRAS to KD value for KRAS) [2],NRAS/KRAS (ratio of KD value for NRAS to KD value for KRAS) [4]
13.2,0.058,"CCO[C@@H]1C[C@H]2C(=O)NC3(CCC3)C(=O)N(C)[C@@H](C3CCCC3)C(=O)N(C)[C@H](C(=O)N(C)C)CC(=O)N(C)[C@@H](CC)C(=O)N[C@@H]([C@@H](C)CC)C(=O)N(C)CC(=O)N(C)[C@H]3C/C=C\CCN(C3=O)[C@@H](Cc3ccc(C(F)(F)F)cc3)C(=O)N(C)CC(=O)N[C@@H](CCc3ccc(C(F)(F)F)c(OC)c3)C(=O)N2C1 [PP1243, (2S,8S,12R,14S,20S,23S,27S,30S,36S,38Z)-20-cyclopentyl-12-ethoxy-27-ethyl-8-[2-[3-methoxy-4-(trifluoromethyl)phenyl]ethyl]-N,N,4,19,22,26,32,35-octamethyl-30-[(1S)-1-methylpropyl]-3,6,9,15,18,21,25,28,31,34,42-undecaoxo-2-[[4-(trifluoromethyl)phenyl]methyl]spiro[1,4,7,10,16,19,22,26,29,32,35-undecazatricyclo[34.5.1.0^10,14]dotetracont-38-ene-17,1′-cyclobutane]-23-carboxamide]",A (a compound having 10 or more and less than 20 is denoted as A),A (a compound having 10 or more and less than 20 is denoted as A)
8.9,0.061,"CCC[C@H]1C(=O)N[C@@H]([C@@H](C)CC)C(=O)N(C)CC(=O)N(C)[C@H]2C/C=C\CCN(C2=O)[C@@H](Cc2ccc(C(F)(F)F)cc2)C(=O)N(C)CC(=O)N[C@@H](CCc2ccc(C(F)(F)F)c(OC)c2)C(=O)N2C[C@H](OCC)C[C@H]2C(=O)NC2(CCC2)C(=O)N(C)[C@@H](C2CCCC2)C(=O)N(C)[C@H](C(=O)N(C)C)CC(=O)N1C [PP1244, (2S,8S,12R,14S,20S,23S,27S,30S,36S,38Z)-20-cyclopentyl-12-ethoxy-8-[2-[3-methoxy-4-(trifluoromethyl)phenyl]ethyl]-N,N,4,19,22,26,32,35-octamethyl-30-[(1S)-1-methylpropyl]-3,6,9,15,18,21,25,28,31,34,42-undecaoxo-27-propyl-2-[[4-(trifluoromethyl)phenyl]methyl]spiro[1,4,7,10,16,19,22,26,29,32,35-undecazatricyclo[34.5.1.0^10,14]dotetracont-38-ene-17,1′-cyclobutane]-23-carboxamide]",B (a compound having 3 or more and less than 10 is denoted as B),A (a compound having 10 or more and less than 20 is denoted as A)
3.7,0.06,"CCO[C@@H]1C[C@H]2C(=O)NC3(CCC3)C(=O)N(C)[C@@H](C3CCCC3)C(=O)N(C)[C@H](C(=O)N(C)C)CC(=O)N(C)[C@@H](CC(C)C)C(=O)N[C@@H]([C@@H](C)CC)C(=O)N(C)CC(=O)N(C)[C@H]3C/C=C\CCN(C3=O)[C@@H](Cc3ccc(C(F)(F)F)cc3)C(=O)N(C)CC(=O)N[C@@H](CCc3ccc(C(F)(F)F)c(OC)c3)C(=O)N2C1 [PP1245, (2S,8S,12R,14S,20S,23S,27S,30S,36S,38Z)-20-cyclopentyl-12-ethoxy-27-isobutyl-8-[2-[3-methoxy-4-(trifluoromethyl)phenyl]ethyl]-N,N,4,19,22,26,32,35-octamethyl-30-[(1S)-1-methylpropyl]-3,6,9,15,18,21,25,28,31,34,42-undecaoxo-2-[[4-(trifluoromethyl)phenyl]methyl]spiro[1,4,7,10,16,19,22,26,29,32,35-undecazatricyclo[34.5.1.0^10,14]dotetracont-38-ene-17,1′-cyclobutane]-23-carboxamide]",B (a compound having 3 or more and less than 10 is denoted as B),A (a compound having 10 or more and less than 20 is denoted as A)
9,0.081,"CCCCCC[C@H]1C(=O)N[C@@H]([C@@H](C)CC)C(=O)N(C)CC(=O)N(C)[C@H]2C/C=C\CCN(C2=O)[C@@H](Cc2ccc(C(F)(F)F)cc2)C(=O)N(C)CC(=O)N[C@@H](CCc2ccc(C(F)(F)F)c(OC)c2)C(=O)N2C[C@H](OCC)C[C@H]2C(=O)NC2(CCC2)C(=O)N(C)[C@@H](C2CCCC2)C(=O)N(C)[C@H](C(=O)N(C)C)CC(=O)N1C [PP1246, (2S,8S,12R,14S,20S,23S,27S,30S,36S,38Z)-20-cyclopentyl-12-ethoxy-27-hexyl-8-[2-[3-methoxy-4-(trifluoromethyl)phenyl]ethyl]-N,N,4,19,22,26,32,35-octamethyl-30-[(1S)-1-methylpropyl]-3,6,9,15,18,21,25,28,31,34,42-undecaoxo-2-[[4-(trifluoromethyl)phenyl]methyl]spiro[1,4,7,10,16,19,22,26,29,32,35-undecazatricyclo[34.5.1.0^10,14]dotetracont-38-ene-17,1′-cyclobutane]-23-carboxamide]",A (a compound having 10 or more and less than 20 is denoted as A),A (a compound having 10 or more and less than 20 is denoted as A)
